Test results reported in patent publication US9198900B2, “Treatment of peritoneal injury using JAK inhibitors” (Los Angeles Biomedical Research Institute at Harbor-UCLA …, priority 2011, dated 2015).

Key:
[1] = system: JAK/STAT signaling; assay: Mesothelial cell exposure to heated PDF in vitro (immunoblot); assay type: cell-based, human
Description: Mesothelial cell exposure to heated PDF in vitro activated JAK/STAT signaling and induced the STAT-associated protein periostin. Heat-sterilization of PDF generates GDPs. A commercially available immortalized human mesothelial cell line was cultured in standard medium, then switched to control medium or heat-sterilized PDF (30:70, medium:PDF)×4 hrs. Heated PDF induced STAT1 phosphorylation, and the pan-JAKi P6 attenuated this (immunoblot doublet, FIG. 1A). After 24 hrs, P6 also attenuated the secretion of the injurious STAT-associated protein periostin into the medium (immunoblot triplet, FIG. 1B). Five characteristics of periostin make it an attractive marker of Pbarrier injury. 1) Periostin is a marker and mediator for the adoption of a mesenchymal phenotype by injured or transformed epithelial cells^73-75. 2) It participates in fibrous healing^76. Others show periostin in the Pbarrier of patients with fibrosis and encapsulating peritoneal sclerosis (Braun et al, ASN poster, 2011). 3) Periostin supports neovascularization^77. 4) It has a bidirectional regulatory relationship with TGF-β^78. 5) It's promoter region has STAT1 and 5 binding sites (www|.|sabiosciences|.|com/chipqpersearch.php?species_id=0&nfactor=n&ninfo=n&ngene=n&B2=Search&src=genecard&factor=Over+200+TF&gene=POSTN). Thus, we can use periostin to affirm JAK/STAT signaling and mesothelial dedifferentiation.

[2] = system: peritoneal membrane; assay: Rat PD with 4.25% Dianeal (biPDF), peritoneal histology; assay type: in vivo; conditions: rats undergoing PD with bioincompatible PDF (biPDF), compared to placebo
Source text: In rats, 10 days of PD with 4.25% Dianeal induced mesothelial cell reactive hyperplasia, fibrosis, inflammation, and JAK1 phosphorylation, all of which are attenuated by a JAK1/2 inhibitor. Visceral and parietal peritoneum respond to biPDF differently^33, 88, so only like tissues were compared across treatments.

[3] = system: Met-5A cells; assay: Cleaved caspase-3 Western blot after exposure to peritoneal dialysis fluid; assay type: cell-based; conditions: 250 nM P6, 24 h; heated PDF, F-PDF, Low GDP-FPDF; FIG. 5N
Description: Methods: Met-5A cells were incubated with heated peritoneal dialysis fluid (PDF), filtered (F-PDF) and Low GDP-FPDF with or without 250 nM JAK inhibitor (Jaki) P6, and cells were harvested at 24 h for measuring cleaved caspase-3 by Western blot as an indication of cell death. 100 μg of cell lysate was separated on a 8-16% SDS polyacrylamide gel. Proteins were transferred onto a nitrocellulose membrane, blocked with 5% BSA in TBST and incubated with primary anti-cleaved caspase-3 antibody (1; 1000, Cell Signaling) overnight. After incubation with a HRP conjugated anti-rabbit antibody (1:1500, GE Healthcare UK Ltd, Piscataway, N.J.), protein bands were visualized by chemiluminiscence (Thermo Scientific). GAPDH serves as an internal control.

[4] = system: human peritoneal mesothelial cells; conditions: cultured human peritoneal mesothelial cells; cited from earlier work

Structure (SMILES)	secretion of the STAT-associated protein periostin into the medium ([1]; heated PDF, after 24 hrs, FIG. 1B)	STAT1 phosphorylation induced by heated PDF ([1]; immortalized human mesothelial cell line, heat-sterilized PDF (30:70, medium:PDF) x 4 hrs, FIG. 1A)	structural integrity of the peritoneal membrane [2]	caspase-3 cleavage induced by PDF (indication of cell death) [3]	leptin-induced TGFβ synthesis [4]
CC(C)(C)c1nc2c3cc[nH]c(=O)c3c3cc(F)ccc3c2[nH]1 [P6]	attenuated	attenuated	preserved	reduced	–
N#C/C(=C\c1ccc(O)c(O)c1)C(=O)NCc1ccccc1 [AG-490]	–	–	–	–	abolished
